Laboratory results from patent publication US20080081781A1, “Methods and compositions for the treatment of metabolic syndrome” (priority 2004, published 2008).
Where two headings read alike, the source gives them in different places.

Columns and labels:
[1] = system: rats; assay: Long term toxicity in rats; type: in vivo, rat; conditions: 300 mg/kg orally for 182 days
Experimental: For long term toxicity determination, rats were administered 300 mg/kg of berberine orally for 182 days.

[2] = system: LDLR; assay: Hamster liver LDLR mRNA and protein expression (real-time RT-PCR, western blot); type: in vivo, Chinese hamster; conditions: 100 mg/kg/day of berberine, end of treatment
Experimental: Two weeks prior to treatment, female Chinese hamsters purchased from the National Institute of Vaccine and Serum research (Beijing, China) were switched to a high fat and cholesterol diet (10% lard, 10% egg yolk powder and 1% cholesterol). After two weeks, groups of 14 hamsters were given either 10 mg/kg/day of berberine through peritoneal injection, 20 mg/kg/day of berberine through peritoneal injection, 50 mg/kg/day, 100 mg/kg/day of berberine orally or saline for ten days. Serum cholesterol, triglyceride and LDL levels were measured after 4 h fasting before, during and after the course of the treatment. Four hours after the course of the treatment, the animals were sacrificed and their livers removed for analysis.
At the end of treatment, three animals from each group were killed and liver LDLR mRNA and protein expressions were examined by quantitative real-time RT-PCR and western blot analysis. For the real-time RT-PCR, reverse transcription with random primers using Superscript II at 42° C. for 30 minutes with 1 μg of total RNA was performed using the ABI Prism 7900-HT Sequence Detection System and Universal MasterMix (Applied Biosystems, Foster City, Calif.). LDLR and GAPD mRNA expression levels were determined using the human LDLR and GAPD Pre-developed TaqMan Assay Reagents (Applied Biosystems).

[3] = system: hyperlipidemia patients; conditions: for Cholesterol / HDL Protein / LDL Protein / Triglycerides: hyperlipidemia patients, n = 32
Experimental: After three months, fasting serum concentrations of cholesterol, triglycerides, HDL and LDL were measured using standard blood lipid tests.

[4] = in vivo; conditions: rabbit, 50 mg/kg
Experimental: 50 mg/kg of berberine was administered through stomach infusion to six rabbits. Serum samples were taken at various points after administration and RP-HPLC was used to measure the drug concentration.

[5] = in vivo; design: species or system canine (beagle); conditions: beagle, dog
Experimental: In parallel animal model studies, four canine (beagle) subjects were given 45 mg/kg of berberine orally. Serum concentrations of the drug were determined by HPLC at 2 and 3 hours after administration. […] After the berberine had cleared the system, the same dog was then administered 700 mg/kg of berberine and blood samples were taken 2, 3, 5, 7, 9 and 24 hours after administration resulting in concentrations of 21.51, 44.89, 49.54, 36.35, 27.83, and 16.01 ηg/ml respectively.

[6] = clinical; conditions: human, in vivo, po, 300 mg
Experimental: Healthy human volunteers were given 300 mg of berberine orally. […] The blood concentration curve was analyzed by 3P87 Pharmacokinetics Software program (Chinese Pharmacological Association, China).

[7] = system: InsR; assay: InsR expression on peripheral blood lymphocytes of patients (flow cytometry); type: in vivo, human; conditions: patients after two months of berberine
Description: Peripheral blood lymphocytes (PBL) were collected for InsR expression analysis. InsR protein expressed on the surface of peripheral blood lymphocytes were stained with monoclonal antibody against human insulin receptor (Pharmagen, San Diego, Calif.) and analyzed in a flow cytometer (BD and Company, San Jose, Calif.)

[8] = system: LDLR mRNA; assay: LDLR mRNA stability after actinomycin D in HepG2 cells (Northern blot); type: cell-based, human; conditions: HepG2, berberine 15 hours then actinomycin D 5 μg/ml
Experimental: (§1) HepG2 cells were cultured and then left alone or treated with berberine for 15 hours. After 15 hours, actinomycin D (5 μg/ml) was added to cells at 0, 20, 40, 60, 90, 120, or 150 minutes. Total mRNA was isolated and analyzed by Northern blot for the amount of LDLR mRNA. […] In contrast, the mRNA stability of HMG-CoA reductase was not altered by berberine.

[9] = in vivo; conditions: beagle, dog, iv, 100 mg/kg
Experimental: Four beagles were injected intravenously with 100 mg/kg of berberine. Using a two compartment model, the pharmacokinetic parameter estimates were as follows: […]

[10] = system: HMG-CoA reductase mRNA; assay: HMG-CoA reductase mRNA stability in HepG2 cells; type: cell-based, human; conditions: HepG2, berberine 15 hours then actinomycin D
Experimental: as §1

[11] = system: ERK; assay: ERK activation in HepG2 or Bel-7402 cells (western blotting, phosphorylated ERK); type: cell-based, human; conditions: both hepatoma cell lines HepG2 and Bel-7402; 0.25-24 hours
Experimental: HepG2 or Bel-7402 cells were treated with berberine for 0.25, 0.5, 0.75, 1, 2, 8, and 24 hours respectively and tested for levels of activated ERK by western blotting using antibodies that only recognize the activated (phosphorylated) ERK. […] The activation of berberine is also dose dependent (FIG. 14C).

[12] = After berberine treatment (3 months)
[13] = Before berberine treatment (baseline)

For `COc1ccc2cc3[n+](cc2c1OC)CCc1cc2c(cc1-3)OCO2` [berberine], the “long term toxicity: blood tests, blood biochemistry, urine analysis, histopathology” value [1] was “No abnormalities were found”, the “increase in LDLR mRNA in hamster livers” value [2] was 3.5 fold and the “increase in LDLR protein in hamster livers” value [2] was 2.6 fold. The “kidney functions (creatine, blood urea nitrogen, total bilirubin)” value ([3]; human, in vivo) was “did not change kidney functions”, the “reduction of alanine aminotransaminase” value ([3]; human, in vivo) was “approximately 48%” and the “reduction of aspartate aminotransaminase” value ([3]; human, in vivo) was ~36%. For the same molecule, the “reduction of gamma glutamyl transpeptidase” value ([3]; human, in vivo) was ~41%, the side effects ([3]; human, in vivo) was “no side effects were observed with the exception of one patient having mild constipation during treatment” and the Cholesterol [3, 12] was 4.2 ± 0.9 mmol/L. For the same molecule, the “HDL Protein” value [3, 12] was 1.1 ± 0.3, the “LDL Protein” value [3, 12] was 2.4 ± 0.6 mmol/L and the Triglycerides [3, 12] was 1.5 ± 0.9 mmol/L. The Cholesterol [3, 13] was 5.9 ± 0.7 mmol/L, the “HDL Protein” value [3, 13] was 1.1 ± 0.3 and the “LDL Protein” value [3, 13] was 3.2 ± 0.7 mmol/L. The Triglycerides [3, 13] was 2.3 ± 1.8 mmol/L, the “peak time Tpeak” value [4] was 0.63 ± 0.25 h and the AUC ([4]; po) was 492 ± 296 ng·h/mL. It also gave a Cmax ([4]; po) of 92.7 ± 50.9 ng/mL, a half-life ([4]; po) of 3.11 ± 0.58 h and a concentration at 2 hours ([5]; 280 mg/kg) of 31400 ng/mL. For the same molecule, the serum concentration ([5]; 280 mg/kg, 3 hours) was 22.6 ηg, the concentration at 2 hours ([5]; 700 mg/kg) was 21.5 ng/mL and the concentration at 3 hours ([5]; 700 mg/kg) was 44.9 ng/mL. The concentration at 5 hours ([5]; 700 mg/kg) was 49.5 ng/mL, the concentration at 7 hours ([5]; 700 mg/kg) was 36.4 ng/mL and the concentration at 9 hours ([5]; 700 mg/kg) was 27.8 ng/mL. It also gave a concentration at 24 hours ([5]; 700 mg/kg) of 16 ng/mL, an AUC [6] of 2800 ng·h/mL and a Cmax [6] of 395 ng/mL. For the same molecule, the “clear rate CL” value [6] was 130.5 L/h, the half-life [6] was 2.91 h and the “% of PBL expressing InsR on the surface” value [7] was “significantly increased”. For the same molecule, the “prolongation of turnover rate of LDLR transcript” value [8] was “approximately threefold”, the AUC [9] was 1980 ± 1140 ng·h/mL and the clearance [9] was 1010 mL/min. The half-life [9] was 12.6 ± 8.83 h, the “mRNA stability of HMG-CoA reductase” value [10] was “not altered” and the “ERK activation (phosphorylated ERK)” value [11] was “rapidly activated ERK”.
